Consider 29 compounds from the supplement of paper PMC10949913.

Details in all cases: 48 h
Assay [1] deals with CU-ACC1. Put plainly: AC50 viability; higher = less potent. In outline:
(§1)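 Three adrenocortical carcinoma cell lines in 1,536-well plates received 23 nL of each library compound at 11 concentrations and were read with CellTiter-Glo after 48 h, with 15 minutes at room temperature before measuring luminescence. Vehicle and empty-well controls served for per-plate normalisation. AC50 and area under the curve were extracted from fitted concentration-response curves, discarding all curve classes other than inhibitory or non-responding.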

Assay [2] relates to CU-ACC1. Put plainly: area under concentration-response curve (viability) (AUC (a.u.)); higher = less active. The procedure, abridged:
as §1

A further assay has as its system NCI-H295R. The assay is described as above. In outline: as §1

The structures appear in SMILES notation.

With `Cc1cc2c(F)c(Oc3ncnn4cc(OC[C@@H](C)O)c(C)c34)ccc2[nH]1`, the AC50 viability with CU-ACC1 [1] was 0.00263 µM. The “area under concentration-response curve” value stood at 317 in the assay on CU-ACC1 [2] and 329 with NCI-H295R.
Take `O=C(N[C@H]1CCC[C@H](CO)C1)C1CCN(c2nc3cc(Cl)c(-c4ccc(Cl)cc4)cc3o2)CC1`: in the assay on CU-ACC1 [1], the AC50 viability came to 20.9 µM. Also, the “area under concentration-response curve” value in the assay on CU-ACC1 [2] stood at 484.
The compound `CC1=C(OC2=CC3=NC=N[N]3C=C2)C=CC(=C1)NC4=NC=NC5=C4C=C(N\C6=N\C(C)(C)CO6)C=C5` came in with an AC50 viability in the assay on CU-ACC1 [1] of 0.00296 µM. The “area under concentration-response curve” value with CU-ACC1 [2] turned out to be 402.
Take `O=C(O)CC[C@H]1CC[C@@](c2cc(F)ccc2F)([S+](=O)([O-])c2ccc(Cl)cc2)CC1`: in the assay with CU-ACC1 [1], the AC50 viability worked out at 0.00105 µM. In addition, the “area under concentration-response curve” value was 359 in the assay with CU-ACC1 [2] and 255 in the assay on NCI-H295R.
On to `O=C1CSC(=O)N1C(CCc1ccncc1)COc1ccc(-c2cccc([N+](=O)[O-])c2)cc1` (stereo not drawn), for which the AC50 viability in the assay on CU-ACC1 [1] stood at 2.63 µM. For the same compound, the “area under concentration-response curve” value with CU-ACC1 [2] is 309; in the assay on NCI-H295R, 396.
As for `N#CC1(c2cccc(C(=O)Nc3cc(Oc4ccc5nc(NC(=O)C6CC6)sc5n4)ccc3F)c2Cl)CC1`, the AC50 viability in the assay with CU-ACC1 [1] amounted to 4.17 µM. In addition, the “area under concentration-response curve” value in the assay on CU-ACC1 [2] turned out to be 390.
The compound `C[S+](=O)([O-])c1ccc(-c2cnc(NCc3ccco3)n3cnnc23)cc1` yielded an AC50 viability with CU-ACC1 [1] of 2.09 µM. Further, the “area under concentration-response curve” value in the assay on CU-ACC1 [2] was 357.
The compound `Nc1ncnc(Nc2ccc(OCc3ccccc3)c(Cl)c2)c1/C=N/OCCN1CCOCC1` had an AC50 viability in the assay with CU-ACC1 [1] of 20.9 µM. Also, the “area under concentration-response curve” value with CU-ACC1 [2] came out at 324.
In the assay on CU-ACC1 [1], `CC(=O)O[C@@]1(CC[C@H]2[C@@H]3\C=C(Cl)/C4=C/C(=O)[C@@H]5C[C@@H]5[C@]4(C)[C@H]3CC[C@]12C)C(C)=O` showed an AC50 viability of 2.35 µM. The figures for the “area under concentration-response curve” value in the assay with CU-ACC1 [2] and in the assay on NCI-H295R were 325 and 304, respectively.
As to `CC(C)[N]1C=C(C)C2=C1C=C(C=C2C(=O)NC\C3=C(C)\C=C(C)/NC3=O)C4=CC=C(N=C4)N5CCN(C)CC5`, in the assay with CU-ACC1 [1], the AC50 viability amounted to 23.5 µM. Further, the “area under concentration-response curve” value with CU-ACC1 [2] stood at 491.
For the compound `COc1ccccc1N1CCN(CCN(C(=O)C2CCCCC2)c2ccccn2)CC1`, the AC50 viability in the assay with CU-ACC1 [1] stood at 20.9 µM. Further, the “area under concentration-response curve” value stood at 351 with CU-ACC1 [2] and 378 with NCI-H295R.
For the compound `ClC1=C[NH]N=C1C\2NC(=N\C3=C2C(=O)CCC3)/NC4=NC5=CC=CC=C5O4` (stereo not drawn), the AC50 viability with CU-ACC1 [1] was determined as 41.7 µM. In addition, the “area under concentration-response curve” value in the assay with CU-ACC1 [2] was found to be 426.
Consider `CN(C)c1ccccc1CN1CCCN(Cc2ccccc2N(C)C)C1c1ccncc1`, for which, in the assay with CU-ACC1 [1], the AC50 viability was 8.33 µM. Moreover, the figures for the “area under concentration-response curve” value with CU-ACC1 [2] and with NCI-H295R were 448 and 444, respectively.
The compound `C[C@H](NC1=C2N=C[NH]C2=NC=N1)C/3=C/C4=C(C(=CC=C4)Cl)C(=O)N3C5=CC=CC=C5` registered an AC50 viability in the assay on CU-ACC1 [1] of 20.9 µM. Besides, the “area under concentration-response curve” value in the assay on CU-ACC1 [2] is 447.
The like results for `Cc1c(NC(=O)OCC2COCCN2)cn2ncnc(Nc3ccc4c(cnn4Cc4cccc(F)c4)c3)c12` (stereo not drawn) were, in that order, 23.5 µM and 433.
For the compound `COc1cc(N2CCC(N3CCN(C)CC3)CC2)ccc1Nc1ncnc(Nc2ccccc2[S+](=O)([O-])C(C)C)n1`, in the assay on CU-ACC1 [1], the AC50 viability is 0.00468 µM. Further, the “area under concentration-response curve” value in the assay on CU-ACC1 [2] was 258.
The like results for `CN(C)Cc1cccc(N/C(=C2\C(=O)Nc3cc(C(N)=O)ccc32)c2ccccc2)c1` were, in that order, 23.5 µM and 420.
With `OC1=CC=C(C=C1)C/2=C/C3=C(OC2)C=C(O)C=C3`, in the assay on CU-ACC1 [1], the AC50 viability was found to be 18.6 µM. The figures for the “area under concentration-response curve” value with CU-ACC1 [2] and in the assay on NCI-H295R were 436 and 471, respectively.
The corresponding values for `CCc1ccc(/C=C2/SC(=S)NC2=O)cc1` are 2.63 µM, 396 and 394.
In the assay on CU-ACC1 [1], `Cc1cc(C)c(C/N=C(\O)c2cc(-c3ccc(N4CCN(C)CC4)nc3)cc3c2c(C)cn3C(C)C)c(O)n1` gave an AC50 viability of 29.5 µM. In addition, in the assay on CU-ACC1 [2], the “area under concentration-response curve” value was 490.
`CC(=O)N1CCN(CCOC2=CC=C(C=C2)C3CCN(CC3)/C4=N/[N]5C(=NN=C5C(F)(F)F)CC4)CC1` returned an AC50 viability in the assay with CU-ACC1 [1] of 11.8 µM. Also, the “area under concentration-response curve” value in the assay on CU-ACC1 [2] was found to be 430.
For the compound `CN1CC[C@H]([C@@H]1CO)C2=C3OC(=C/C(=O)C3=C(O)C=C2O)\C4=C(Cl)C=C(C=C4)C(F)(F)F`, the AC50 viability with CU-ACC1 [1] worked out at 14.8 µM. Besides, the “area under concentration-response curve” value with CU-ACC1 [2] turned out to be 477; in the assay on NCI-H295R it was 538.
`C[C@](O)(COc1ccc(C#N)cc1)C(=O)Nc1ccc(C#N)c(C(F)(F)F)c1` showed an AC50 viability in the assay with CU-ACC1 [1] of 0.00118 µM. Further, the “area under concentration-response curve” value in the assay on CU-ACC1 [2] was found to be 322; in the assay on NCI-H295R, 248.
In the assay on CU-ACC1 [1], `CCCCCNC(=N)N/N=C/c1c[nH]c2ccc(OC)cc12` gave an AC50 viability of 14.8 µM. Moreover, in the assay on CU-ACC1 [2], the “area under concentration-response curve” value was found to be 416.
Consider `CN(C)CCN1C(=O)c2cccc3cc(N)cc(c23)C1=O`, for which the AC50 viability in the assay on CU-ACC1 [1] is 26.3 µM. Also, the “area under concentration-response curve” value in the assay on CU-ACC1 [2] came out at 452.
The like results for `CCN(CC)CCCCNc1nc2cc(Cl)c(Cl)cc2nc1-c1ccc(-c2cccs2)s1` were, in that order, 23.5 µM and 451.
`COC[C@H]1OC(=O)C2=COC3=C2[C@@]1(C)\C4=C(\[C@@H]5CC[C@H](O)[C@@]5(C)C[C@H]4OC(C)=O)C3=O`: the AC50 viability in the assay with CU-ACC1 [1] came to 4.17 µM. For the same compound, the “area under concentration-response curve” value in the assay with CU-ACC1 [2] is 311.
The compound `CC1=CC=CC=C1CN2C(=O)C/3=C(/CCN(CC4=CC=CC=C4)C3)N\5CC\N=C25` had an AC50 viability in the assay on CU-ACC1 [1] of 6.61 µM. In the assay with CU-ACC1 [2], the “area under concentration-response curve” value amounted to 313.
For the compound `O=C(/C=C/c1ccc(Cl)cc1)N1CCC2(CC1)CN(Cc1ccc(Cl)c(Cl)c1)C(=O)O2`, the AC50 viability in the assay on CU-ACC1 [1] was found to be 20.9 µM. Moreover, the “area under concentration-response curve” value with CU-ACC1 [2] was determined as 432.
